What was measured:
S. cerevisiae BY4741 = test: Biocompatibility of extractants: glucose utilization rate of the microorganism during extraction; type: cell-based, Saccharomyces cerevisiae; details: percentage of average value for oleyl alcohol (Comparative Example A); 25 mL extractant/75 mL culture broth, 40 g/L initial isobutanol, 30° C., 8 hours
Experimental: (§1) Each extractant was contacted with a fermentation medium and isobutanol as described below to determine the partition coefficient of the extractant. The biocompatibility of the extractant was also assessed by determining the glucose utilization rate of the microorganism during the extraction.
The following experimental procedure was used. In these experiments the amount of ethanol depended on the amount of glucose consumption but typical ethanol values were in the range of 10-15 g/L. The presence of ethanol in these concentrations is not expected to impact glucose consumption and the partitioning of butanol into the extractant. Seed shake flasks containing 250 mL of yeast extract/peptone/dextrose (YPD) medium were inoculated with 150 μL of S. cerevisiae BY4741 inoculum and incubated for about 14 hours at 30° C. with shaking at 250 rpm in a table top shaker (Innova 4230, New Brunswick scientific, Edison, N.J.). When the OD600 reached about 0.4, the glucose concentration in the culture broth was analyzed rapidly by a Select Biochemistry Analyzer and extra glucose was added to reach a final concentration of about 25 g/L. The culture broth was divided into 125 mL flasks, each containing 75 mL of the culture broth. After one hour of incubation at 30° C. with shaking at 200 rpm, 3.75 mL of isobutanol was added to each flask in order to bring the initial isobutanol concentration in the aqueous phase to 40 g/L. The incubation of the biphasic fermentation medium comprising an aqueous phase and a butanol-containing organic phase was continued at 30° C. with shaking at 100 rpm for 8 hours. The aqueous and organic phases in each flask were separated by decantation. The aqueous phase was centrifuged (2 minutes on 13,000 rpm with an Eppendorf centrifuge model 5415R) to remove cells and the supernatant analyzed for glucose, ethanol, and isobutanol by HPLC.
Glucose utilization rates were calculated by noting the difference in glucose concentrations between samples and the time between samples and computing a rate accordingly, for example ([glucose]t2−[glucose]t1)/(t2−t1) where t1 refers to a time earlier than t2 and [glucose] means the concentration of glucose.
Comparative Example A was repeated three times and the results averaged. For the extractants of Comparative Examples A-G, the partition coefficient for isobutanol and the glucose utilization rate are expressed below in Table 3 as percentages of the average values determined for oleyl alcohol (Comparative Example A). A value greater than 100% indicates a result which is numerically larger than that for oleyl alcohol. A value less than 100% indicates a result which is numerically smaller than that for oleyl alcohol. A value of 100% indicates a result which is the same as that for oleyl alcohol. As disclosed in US Patent Application Publication No. 2009-0305370 A1, oleyl alcohol performed well in single solvent extractive fermentations for isobutanol production.
(§2) The extractants listed in Table 2 were evaluated using the procedure described above, but with the following modifications. After the culture broth was divided into 125 mL flasks, each containing 75 mL of the culture broth, oleyl alcohol was added as the first solvent to each flask in the amount shown in Table 2.
For the extractants of Examples 1-15, the partition coefficients for isobutanol and the glucose utilization rate are expressed below in Table 3, together with the results for Comparative examples A-G, as percentages of the average values determined for oleyl alcohol (Comparative Example A). A value greater than 100% indicates a result which is numerically larger than that for oleyl alcohol. A value less than 100% indicates a result which is numerically smaller than that for oleyl alcohol. A value of 100% indicates a result which is the same as that for oleyl alcohol.

[1] = Partition coefficient for isobutanol between extractant (organic phase) and fermentation medium (aqueous phase); type: physicochemical; details: isobutanol partition coefficient (organic/aqueous) as percentage of average value for oleyl alcohol (Comparative Example A); 40 g/L initial isobutanol, 30° C.
Experimental: as §1
The following experimental procedure was used. […] When the OD600 reached about 0.4, the glucose concentration in the culture broth was analyzed rapidly by a Select Biochemistry Analyzer and extra glucose was added to reach a final concentration of about 25 g/L. The culture broth was divided into 125 mL flasks, each containing 75 mL of the culture broth. After one hour of incubation at 30° C. with shaking at 200 rpm, 3.75 mL of isobutanol was added to each flask in order to bring the initial isobutanol concentration in the aqueous phase to 40 g/L. The incubation of the biphasic fermentation medium comprising an aqueous phase and a butanol-containing organic phase was continued at 30° C. with shaking at 100 rpm for 8 hours. The aqueous and organic phases in each flask were separated by decantation.
Partition coefficients for the isobutanol distribution between the organic and aqueous phases were calculated from the known amount of isobutanol added to the flask and the isobutanol concentration data measured for the aqueous phase. The concentration of isobutanol in the extractant phase was determined by the mass balance. The partition coefficient was determined as the ratio of the isobutanol concentrations in the organic and the aqueous phases, i.e., Kp=[Isobutanol]Organic phase/[isobutanol]Aqueous phase.
(§3) A value greater than 100% indicates a result which is numerically larger than that for oleyl alcohol. A value less than 100% indicates a result which is numerically smaller than that for oleyl alcohol. A value of 100% indicates a result which is the same as that for oleyl alcohol.
as §2, §3

| Structure (SMILES) | % KP [1] | % Glucose Utilization Rate (S. cerevisiae BY4741) |
| --- | --- | --- |
| CCCCCCCCCO [Comparative Ex. B, 1-Nonanol] | – | 0% |
| CCCCCCCCCCCCO [Comparative Ex. G, 1-Dodecanol] | – | 84% |
| CCCCCCCC/C=C\CCCCCCCCO [Comparative Ex. A, Oleyl Alcohol] | 100% | 100% |

Second part, led by results:

| % KP [1] | Structure (SMILES) | % Glucose Utilization Rate (S. cerevisiae BY4741) |
| --- | --- | --- |
| 139.0% | CCCCCCCCCCO [Comparative Ex. F, 1-Decanol] | 0% |
| 127.0% | CCCCCCCCCCCO [Comparative Ex. C, 1-Undecanol] | 0% |
| 139.0% | CCCCCCCCCC(C)O (stereo not drawn) [Comparative Ex. D, 2-Undecanol] | 0% |
| 132.6% | CCCCCCCCC=O [Comparative Ex. E, 1-Nonanal] | 0% |

From patent publication US20110097773A1, “METHOD FOR PRODUCING BUTANOL USING EXTRACTIVE FERMENTATION” (BUTAMAX(TM) ADVANCED BIOFUELS LLC, priority 2009, published 2011)
